Data published in article PMC11597089, “Kratom Alkaloids: A Blood–Brain Barrier Specific Membrane Permeability Assay-Guided Isolation and Cyclodextrin Complexation Study” (Molecules, 2024).

Experiments:
Type in all cases: physicochemical
[1] = ACE complex stability, HP-β-CD; details: hydroxypropylated-β-CD DS~4.5, 30 mM phosphate buffer pH 7.4, 25 °C
Procedure: (§1) To investigate the CD complexation behavior of the four kratom alkaloids, we aimed to develop an ACE method for a systematic comparative study. […] To ensure sufficient buffer capacity and to avoid excessive current and Joule heat generation, the buffer concentration was set to 30 mM, and the applied voltage was 15 kV.
(§2) The ACE experiments were performed by using Agilent 7100 and HP^3DCE instruments (Agilent Technologies, Waldbronn, Germany). Untreated fused silica capillaries (total length of 48.5 cm, effective length of 40 cm, inner diameter of 50 μm) were purchased from Agilent Technologies. The new capillaries were conditioned with a 1 M NaOH wash for 1 h, followed by a 30 min wash each with 0.1 M NaOH and purified water. Prior to all runs, the capillary was preconditioned by rinsing with background electrolyte for 3 min. During the measurements, 30 mM phosphate buffer at pH 7.4 (30 mM Na2HPO4-NaOH) was used. The background electrolyte contained CDs at various concentrations. Stock solutions of the studied kratom alkaloids (mitragynine, paynantheine, speciogynine, speciociliatine) were prepared separately in methanol (1 mg/mL), and, right before the measurements, appropriate dilutions with purified water were used to prepare the sample solutions, applying 0.1% DMSO as the electroosmotic flow (EOF) marker. The samples were injected hydrodynamically at 40 mbar for 3 s. The positive polarity voltage was set to 15 kV, and the capillary was set to 25 °C. The electropherograms were recorded at four wavelengths (200 nm, 210 nm, 215 nm, and 220 nm), and the data were evaluated at 215 nm. In each case, three parallel measurements were performed. The measurements were evaluated using Origin and CEval software (v. 0.6i3).
(§3) In order to determine the complex stability constants that characterized the strength of the complexes, the first step was to determine the effective mobility of the analyte at specific CD concentrations. Triangular peaks caused by electromigration dispersion are often observed in ACE measurements. […]

[2] = ACE complex stability, CM-α-CD; details: carboxymethylated-α-CD DS~3.5, 30 mM phosphate buffer pH 7.4, 25 °C
Procedure: as §1, §2, §3

[3] = ACE complex stability, CM-γ-CD; details: carboxymethylated-γ-CD DS~4, 30 mM phosphate buffer pH 7.4, 25 °C
Procedure: as §1, §2
(§4) In order to determine the complex stability constants that characterized the strength of the complexes, the first step was to determine the effective mobility of the analyte at specific CD concentrations. Triangular peaks caused by electromigration dispersion are often observed in ACE measurements.
(§5) Assuming a 1:1 complexation ratio and that the equilibrium CD concentration is almost equal to the total CD concentration, a relationship between the effective mobility relative to the EOF and the complex stability constant can be described by Function (4) (4) μeff=μA+μACDKstabCD/1+KstabCD where µeff is the effective mobility of the analyte, µA and µACD are the free and complexed analyte mobilities, [CD] is the concentration of the selector, and Kstab is the complex stability constant.
(§6) In order to calculate the exact, apparent, averaged complex stability constant values, viscosity correction and ionic strength correction were used.

[4] = ACE complex stability, Sualfadex; details: hexakis-(6-deoxy-6-(2-carboxyethyl)thio)-α-CD, 30 mM phosphate buffer pH 7.4, 25 °C
Procedure: as §1, §2, §4, §5, §6

[5] = ACE complex stability, SBE-β-CD DS~4; details: sulfobutyl-ether-β-CD DS~4, 30 mM phosphate buffer pH 7.4, 25 °C
Procedure: as §1, §2, §4, §5, §6

[6] = ACE complex stability, MA-β-CD; details: mono-(6-N-amino-6-deoxy)-β-CD, positively charged, 30 mM phosphate buffer pH 7.4, 25 °C
Procedure: as §1, §2, §4, §5, §6

[7] = ACE complex stability, PYR-β-CD; details: 6-monodeoxy-6-pyrrolidine-β-CD, positively charged, 30 mM phosphate buffer pH 7.4, 25 °C
Procedure: as §1, §2, §4, §5, §6

[8] = ACE complex stability, PIP-β-CD; details: 6-monodeoxy-6-piperidine-β-CD, positively charged, 30 mM phosphate buffer pH 7.4, 25 °C
Procedure: as §1, §2, §4, §5, §6

[9] = ACE complex stability, MePYR-β-CD; details: mono-6^A-(N-methyl-pyrrolidine)-β-CD, positively charged, 30 mM phosphate buffer pH 7.4, 25 °C
Procedure: as §1, §2, §4, §5, §6

| Molecule | complex stability constant (Kstab) with HP-β-CD [1] | complex stability constant (Kstab) with CM-α-CD [2] | complex stability constant (Kstab) with CM-γ-CD [3] | complex stability constant (Kstab) with Sualfadex [4] | complex stability constant (Kstab) with SBE-β-CD DS~4 [5] | complex stability constant (Kstab) with MA-β-CD [6] | complex stability constant (Kstab) with PYR-β-CD [7] | complex stability constant (Kstab) with PIP-β-CD [8] | complex stability constant (Kstab) with MePYR-β-CD [9] |
| --- | --- | --- | --- | --- | --- | --- | --- | --- | --- |
| C=C[C@H]1CN2CCc3c([nH]c4cccc(OC)c34)[C@@H]2C[C@@H]1/C(=C\OC)C(=O)OC [Paynantheine, paynantheine] | 75 ± 5 M⁻¹ | 175 ± 12 M⁻¹ | 180 ± 20 M⁻¹ | 80 ± 15 M⁻¹ | 830 ± 50 M⁻¹ | < 10 M⁻¹ | < 10 M⁻¹ | < 10 M⁻¹ | < 10 M⁻¹ |
| CC[C@@H]1CN2CCc3c([nH]c4cccc(OC)c34)[C@H]2C[C@@H]1/C(=C\OC)C(=O)OC [Speciociliatine, speciociliatine] | 30 ± 3 M⁻¹ |  | 120 ± 12 M⁻¹ | 250 ± 45 M⁻¹ | 670 ± 60 M⁻¹ | < 10 M⁻¹ | < 10 M⁻¹ | < 10 M⁻¹ | < 10 M⁻¹ |
| CC[C@H]1CN2CCc3c([nH]c4cccc(OC)c34)[C@@H]2C[C@@H]1/C(=C\OC)C(=O)OC [Speciogynine, speciogynine] |  | 135 ± 12 M⁻¹ | 140 ± 12 M⁻¹ | 75 ± 20 M⁻¹ | 610 ± 60 M⁻¹ | < 10 M⁻¹ | < 10 M⁻¹ | < 10 M⁻¹ | < 10 M⁻¹ |
| mitragynine | 35 ± 2 M⁻¹ | 155 ± 15 M⁻¹ | 200 ± 10 M⁻¹ | 200 ± 25 M⁻¹ | 550 ± 35 M⁻¹ | < 10 M⁻¹ | < 10 M⁻¹ | < 10 M⁻¹ | < 10 M⁻¹ |
